Source: patent publication US4409221A, “1,2,3,4,4a,9b-Hexahydro-4a-piperazinylmethyl-4-dibenzofuranone or -dibenzofuranol derivatives” (Riom Laboratories - Cerm S.A., priority 1981, dated 1983)
Counter-ions that a name gives are not always drawn.

Assays:
[1] = acute toxicity rating (LD50) by oral administration in mice; conditions: mouse, in vivo
Description: (§1) The activity of the product under study is evaluated by comparing the amplitudes of the bronchospasms before and after treatment and calculating the percentage change. The duration of action of the compounds under study has also been observed. (Table I). This table also contains an acute toxicity rating (LD50) determined by oral administration in mice.

[2] = test system: histamine type bronchospasms; assay: anti-bronchoconstrictor activity in guineapigs, KONZETT and ROSSLER technique, histamine-induced bronchospasm; assay type: in vivo; conditions: histamine 5 μg/kg^-1 i.v.; for inhibition at 5 mg/kg / inhibition at 1 mg/kg: iv, anaesthetised guineapigs, read-out: Percentage Inhibition
Description: (§2) The anti-bronchoconstrictor activity of the compounds of the invention is evaluated in guineapigs by the KONZETT and ROSSLER technique.
(§3) After being anaesthetised with ethyl carbamate and submitted to tracheotomy, the animals are given artificial breathing at constant volume and the intertracheal pressure is recorded, which makes an indirect measurement of the total pulmonary resistance possible. Histamine (5 μg/kg^-1 i.v.) is administered before, and at different time intervals after, intravenous administration of the compounds of the invention.
as §1

[3] = test system: serotoninergic bronchospasms; assay: bronchospasm experiment repeated replacing histamine with serotonin; assay type: in vivo, guineapigs; conditions: iv, 1 h; compound 5 mg/kg^-1 intravenously; serotonin 20 μg/kg^-1 I.V.; observed during 60 minutes
Description: as §2, §3, §1
In addition, the bronchosparm experiment was repeated, but replacing histamine with serotonine, (20 μg/kg^-1, I.V.).

## CCOC(CN1CCN(CC23Oc4c(OC)cccc4C2CCCC3=O)CC1)c1ccccc1 (centres unmarked) [Compound 3]
[1]
  LD50: 320 mg/kg
[2]; compound 5 mg/kg^-1 I.V.
  Duration (duration of action): > 45 min
  inhibition at 5 mg/kg: 97.5 ± 2.5%

## CCOC(CN1CCN(CC23Oc4ccccc4C2CCCC3O)CC1)c1ccccc1 (centres unmarked) [Compound 1, 1,2,3,4,4a,9b-hexahydro-4a-(1-[4-(2-ethoxy-2-phenyl)ethyl]piperazinyl)methyl-4-dibenzofuranol]
[3]
  inhibition at 5 mg/kg: 87.6%
[2]; compound 1 mg/kg^-1 I.V.
  Duration (duration of action): > 60 min
  inhibition at 1 mg/kg: 87.7 ± 6.6%
[2]; compound 5 mg/kg^-1 I.V.
  Duration (duration of action): > 60 min
  inhibition at 5 mg/kg: 100%

## CCOC(CN1CCN(CC23Oc4ccc(OC)cc4C2CCCC3O)CC1)c1ccccc1 (centres unmarked) [Compound 6]
[1]
  LD50: 900 mg/kg
[2]; compound 5 mg/kg^-1 I.V.
  Duration (duration of action): > 45 min
  inhibition at 5 mg/kg: 48.2 ± 9.2%

## COC(CN1CCN(CC23Oc4ccccc4C2CCCC3O)CC1)c1ccccc1 (centres unmarked) [Compound 8]
[1]
  LD50: 480 mg/kg
[2]; compound 1 mg/kg^-1 I.V.
  Duration (duration of action): > 60 min
  inhibition at 1 mg/kg: 95.5 ± 4.6%

## CCOC(CN1CCN(CC23Oc4ccccc4C2CCCC3=O)CC1)c1ccccc1 (centres unmarked) [Compound 5, 1,2,3,4,4a,9b-hexahydro-4a-(1-[4-(2-ethoxy-2-phenyl)ethyl]piperazinyl)methyl-4-dibenzofuranone]
[1]
  LD50: 900 mg/kg
[2]; compound 5 mg/kg^-1 I.V.
  Duration (duration of action): > 45 min
  inhibition at 5 mg/kg: 80.2 ± 9.9%

## CCOC(CN1CCN(CC23Oc4ccc(F)cc4C2CCCC3O)CC1)c1ccccc1 (centres unmarked) [Compound 2, 1,2,3,4,4a,9b-hexahydro-4a-(1-[4-(2-ethoxy-2-phenyl)ethyl]piperazinyl)methyl-8-fluoro-4-dibenzofuranol, 2 HCl]
[1]
  LD50: 900 mg/kg
[2]; compound 5 mg/kg^-1 I.V.
  Duration (duration of action): > 60 min
  inhibition at 5 mg/kg: 95 ± 3.1%
